Patent EP1105395B1, “PHOTOCYCLIZED RAPAMYCINS” (priority 1998, dated 2000)
In brackets after ≈: the same amount, converted by molar mass.

Columns and labels:
Assay type in all cases: cell-based
Candida zeylanoided = experiment: Antifungal activity, microtiter broth dilution MIC; details: Candida zeylanoided ID 94-15; 35 °C, 24-48 hours
Experimental: (§1) Antifungal activity for the compounds of this invention was established by evaluating a representative compound of this invention (Compound I) against several strains of fungi. Briefly the following procedure was used to evaluate such activity. A 96 U-bottom microtiter plate was filled (50 µl/well) with RPMI 1640. The compounds to be evaluated were placed in appropriate wells, and serial diluted in successive wells to provide 11 dilutions. The concentrations ranged from 64 through 0.06 µg/ml. An adjusted inoculum of fungi (50 µl) was added to each well and the plates were incubated at 35 °C for 24-48 hours. […]

Cryptococcus neoformans = experiment: Antifungal activity, microtiter broth dilution MIC; details: Cryptococcus neoformans ID ATCC 90112; 35 °C, 24-48 hours
Experimental: as §1

[1] = test system: Filobasidiella neoformans; experiment: Antifungal activity, microtiter broth dilution MIC; details: Filobasidiella neoformans ID ATCC 7472; 35 °C, 24-48 hours
Experimental: as §1

Candida parapsilosis = experiment: Antifungal activity, microtiter broth dilution MIC; details: 35 °C, 24-48 hours
Experimental: as §1

Candida krussii = experiment: Antifungal activity, microtiter broth dilution MIC; details: Candida krussii ID 94-2; 35 °C, 24-48 hours
Experimental: as §1

Candida lusitaniae = experiment: Antifungal activity, microtiter broth dilution MIC; details: Candida lusitaniae ID 94-3; 35 °C, 24-48 hours
Experimental: as §1

Candida glabrata = experiment: Antifungal activity, microtiter broth dilution MIC; details: Candida glabrata ID ATCC 90030; 35 °C, 24-48 hours
Experimental: as §1

Candida albicans = experiment: Antifungal activity, microtiter broth dilution MIC; details: 35 °C, 24-48 hours
Experimental: as §1

Candida tropicalis = experiment: Antifungal activity, microtiter broth dilution MIC; details: 35 °C, 24-48 hours
Experimental: as §1

Candida pseudotropicalis = experiment: Antifungal activity, microtiter broth dilution MIC; details: Candida pseudotropicalis ID ATCC 28838; 35 °C, 24-48 hours
Experimental: as §1

Aspergillus flavus = experiment: Antifungal activity, microtiter broth dilution MIC; details: Aspergillus flavus ID ATCC 12963; 35 °C, 24-48 hours
Experimental: as §1

Candida rugosa = experiment: Antifungal activity, microtiter broth dilution MIC; details: Candida rugosa ID 94-10; 35 °C, 24-48 hours
Experimental: as §1

Aspergillus fumigatus = experiment: Antifungal activity, microtiter broth dilution MIC; details: Aspergillus fumigatus ID ATCC 26933; 35 °C, 24-48 hours
Experimental: as §1

Aspergillus niger = experiment: Antifungal activity, microtiter broth dilution MIC; details: Aspergillus niger ID S-430; 35 °C, 24-48 hours
Experimental: as §1

Saccharomyces cerevisiae = experiment: Antifungal activity, microtiter broth dilution MIC; details: Saccharomyces cerevisiae ID ATCC 2601; 35 °C, 24-48 hours
Experimental: as §1

MDA-MB-435 (breast) = experiment: Antineoplastic activity, tumor cell growth inhibition (sulforhodamine B); details: MDA-MB-435 cells, 48 hours, inhibition of growth
From the text: (§2) Antineoplastic activity for the compounds of this invention was established by evaluating the antineoplastic activity of a representative compound of this invention (Compound I) against six tumor cell lines in vitro. Briefly, tumor cells from six cell lines were placed in wells of a 96 well microtiter plate. The following tumor cell lines were used: A2780S (ovarian), A2780DDP (ovarian - resistant to cis-platin), A431 (vulva epidermoid origin), SW620 (colon), SKBR3 (breast), and MDA-MB-435 (breast). The tumors cells were grown in the presence of serial dilutions of the compound to be evaluated for 48 hours, and cell growth determined using a colorimetric procedure (sulforhrodamine B). The inhibition of growth was calculated compared to the number of cells at the time of test compound addition. Results are expressed as an IC50 (µg/ml). […] In particular, the compounds of this invention are useful against solid tumors, including sarcomas and carcinomas; and more particularly against astrocytomas, prostate cancer, breast cancer, colon cancer, small cell lung cancer, and ovarian cancer; and adult T-cell leukemia/lymphoma.

A2780S (ovarian) = experiment: as above; details: A2780S cells, 48 hours, inhibition of growth
From the text: as §2

[2] = test system: A2780DDP (ovarian - resistant to cis-platin); experiment: as above; details: A2780DDP cells, 48 hours, inhibition of growth
From the text: as §2

[3] = test system: A431 (vulva epidermoid origin); experiment: as above; details: A431 cells, 48 hours, inhibition of growth
From the text: as §2

SKBR3 (breast) = experiment: as above; details: SKBR3 cells, 48 hours, inhibition of growth
From the text: as §2

SW620 (colon) = experiment: as above; details: SW620 cells, 48 hours, inhibition of growth
From the text: as §2

[4] = Candida parapsilosis ID ATCC 90018

SMILES | MIC (Candida zeylanoided) [µg/mL] | MIC (Cryptococcus neoformans) [µg/mL] | MIC [1] [µg/mL] | MIC (Candida parapsilosis; Candida parapsilosis ID 94-8) [µg/mL] | MIC (Candida parapsilosis; Candida parapsilosis ID 94-9) [µg/mL] | MIC (Candida parapsilosis; [4]) [µg/mL] | MIC (Candida lusitaniae) [µg/mL] | MIC (Candida glabrata) [µg/mL] | MIC (Candida albicans; Candida albicans ID 94-1) [µg/mL] | MIC (Candida albicans; Candida albicans ID 1063) [µg/mL] | MIC (Candida albicans; Candida albicans ID 1117) [µg/mL] | MIC (Candida albicans; Candida albicans ID ATCC 90028) [µg/mL] | MIC (Candida albicans; Candida albicans ID C-83) [µg/mL] | MIC (Candida tropicalis; Candida tropicalis ID 94-13) [µg/mL] | MIC (Candida tropicalis; Candida tropicalis ID 94-14) [µg/mL] | MIC (Candida pseudotropicalis) [µg/mL] | MIC (Aspergillus flavus) [µg/mL] | MIC (Candida rugosa) [µg/mL] | MIC (Aspergillus fumigatus) [µg/mL] | MIC (Aspergillus niger) [µg/mL] | other results
C[C@@H]1[C@H](O)[C@@H](C)/C=C/C=C/C=C/C=C/C=C/C=C/C=C/[C@H](O[C@@H]2O[C@H](C)[C@@H](O)[C@H](N)[C@@H]2O)C[C@@H]2O[C@](O)(C[C@@H](O)C[C@@H](O)[C@H](O)CC[C@@H](O)C[C@@H](O)CC(=O)O[C@H]1C)C[C@H](O)[C@H]2C(=O)O [Amphtericin B] | 0.25 (≈ 0.271 µM) | ≤0.12 | 0.12 (≈ 0.13 µM) | 0.25 (≈ 0.271 µM) | 0.5 (≈ 0.541 µM) | ≤0.12 | ≤0.12 | 0.25 (≈ 0.271 µM) | ≤0.12 | 0.25 (≈ 0.271 µM) | 0.25 (≈ 0.271 µM) | 0.25 (≈ 0.271 µM) | 0.25 (≈ 0.271 µM) | 0.25 (≈ 0.271 µM) | 0.25 (≈ 0.271 µM) | 0.25 (≈ 0.271 µM) | 2 (≈ 2.16 µM) | 0.25 (≈ 0.271 µM) | 0.25 (≈ 0.271 µM) | 0.25 (≈ 0.271 µM) | MIC (Candida krussii): 0.5 µg/mL (≈ 0.541 µM); MIC (Saccharomyces cerevisiae): ≤0.12 µg/mL
CO[C@H]1C[C@@H]2CC[C@@H](C)[C@@](O)(O2)[C@]2(O)C(=O)N3[C@@H](CCC[C@@H]32)C(=O)O[C@H]([C@H](C)C[C@@H]2CC[C@@H](O)[C@H](OC)C2)CC(=O)[C@H](C)/C=C(\C)[C@@H](O)[C@@H](OC)C(=O)[C@H](C)C[C@H](C)/C=C/C=C/C=C/1C [Compound I, (1S, 2R, 3R, 6S, 8S, 9E, 11E, 13E, 15S, 17R, 19R, 20R, 21E, 23R, 26S, 29S, 33R)-1,2, 30-Trihydroxy-26-[(1R)-2-[(1S, 3R, 4R)-4-hydroxy-3-methoxycyclohexyl]-1-methylethyl]-8, 19-dimethoxy-3,9,15, 17, 21, 23-hexamethyl-27, 36-dioxa-35-azatetracyclo[27.4.2.1.[2, 6].0 [33, 35]] hexatriaconta-9, 11, 13, 21-tetraene-18, 24, 28, 34-tetrone] | 8 (≈ 8.75 µM) | 8 (≈ 8.75 µM) | ≥64 | 8 (≈ 8.75 µM) | 8 (≈ 8.75 µM) | 8 (≈ 8.75 µM) | 4 (≈ 4.38 µM) | 8 (≈ 8.75 µM) | 16 (≈ 17.5 µM) | 16 (≈ 17.5 µM) | 32 (≈ 35 µM) | 16 (≈ 17.5 µM) | ≥64 | 16 (≈ 17.5 µM) | 8 (≈ 8.75 µM) | 4 (≈ 4.38 µM) | ≥64 | 16 (≈ 17.5 µM) | ≥64 | ≥64 | MIC (Saccharomyces cerevisiae): 8 µg/mL (≈ 8.75 µM); IC50 (MDA-MB-435 (breast)): 27.28 µg/mL (≈ 29.8 µM); IC50 (A2780S (ovarian)): 8.756 µg/mL (≈ 9.58 µM); IC50 [2]: 6.51 µg/mL (≈ 7.12 µM); IC50 [3]: 20.46 µg/mL (≈ 22.4 µM); IC50 (SKBR3 (breast)): 7.029 µg/mL (≈ 7.69 µM); IC50 (SW620 (colon)): 24.84 µg/mL (≈ 27.2 µM)
